Paper PMC10331583, “Control of fibrosis with enhanced safety via asymmetric inhibition of prolyl‐tRNA synthetase 1” (EMBO Molecular Medicine, 2023)
“And” between values parts separate entries of the source, which are not always exact repeats. Identical values can stand only once.

Key:
[1] = CellTiter‐Glo assay, screen of HF derivatives; format: cell-based; conditions: human, NHLF cells
Protocol: After 24 h, the cells were incubated with various concentrations of compounds for 48 h. The level of ATP as a measure of cell viability was determined using a CellTiter‐Glo® luminescent cell viability assay kit (Promega, G7571) following the manufacturer's instructions.

[2] = tested on: WI‐26 VA4 cells stably expressing EV (empty vector); assay: Collagen ELISA in cells stably expressing EV; conditions: for Collagen level, average: average of 4 experiments; for Collagen level, single replicates: replicates of Experiments #1-#4
[3] = Cytotoxicity assay in cells stably expressing PARS1 mutant; conditions: human; for activity at 72 h, 3 µM: 3000 nM; for activity at 72 h, 30 µM: 30000 nM; for activity at 72 h, 100 µM: 100000 nM
[4] = tested on: WI‐26 VA4 cells stably expressing PARS1 FA/EA/RL mutant; assay: as above; conditions: WI-26 VA4 Flag-PARS1 FA/EA/RL
[5] = Cytotoxicity assay in cells stably expressing EV; conditions: human
[6] = Cytotoxicity, % of control (single replicates, Experiment #1-#4), WI-26 VA4 Flag-PARS1 FA/EA/RL
[7] = Cytotoxicity, % of control, average, WI-26 VA4 Flag-PARS1 FA/EA/RL

SMILES: O[C@H]1CCCN[C@@H]1CCCn1cnc2c(Cl)c(Cl)ccc21 [DWN12088]
- CC50 at 48 h [1]: > 100 µM
- CC50/collagen IC50 ([2]; EV cells): 12.55
- Relative (CC50)/(collagen IC50) ([2]; EV cells (reference)): 1.00
- IC50 ([2]; Homo sapiens, WI26VA4, read-out: IC50, collagen level): 1910 nM
- Collagen level, average ([2]; WI-26 VA4 EV, 30 nM): 106.29 % of control
- Collagen level, single replicates ([2]; WI-26 VA4 EV, 30 nM): 103.80 % of control and 93.68 % of control and 118.18 % of control and 101.32 % of control and 113.71 % of control and 100.49 % of control and 110.94 % of control and 125.36 % of control and 99.68 % of control and 91.65 % of control and 118.14 % of control and 98.48 % of control
- Collagen level, average ([2]; WI-26 VA4 EV, 100 nM): 97.93 % of control
- Collagen level, single replicates ([2]; WI-26 VA4 EV, 100 nM): 104.52 % of control and 100.73 % of control and 92.07 % of control and 94.49 % of control and 97.76 % of control and 98.74 % of control and 108.25 % of control and 102.28 % of control and 98.65 % of control and 91.35 % of control and 85.38 % of control and 100.91 % of control
- Collagen level, average ([2]; WI-26 VA4 EV, 300 nM): 81.48 % of control
- Collagen level, single replicates ([2]; WI-26 VA4 EV, 300 nM): 91.09 % of control and 79.16 % of control and 74.69 % of control and 82.43 % of control and 80.75 % of control and 70.25 % of control and 88.16 % of control and 89.14 % of control and 75.64 % of control and 84.11 % of control and 76.95 % of control and 85.36 % of control
- Collagen level, average ([2]; WI-26 VA4 EV, 1000 nM): 68.39 % of control
- Collagen level, single replicates ([2]; WI-26 VA4 EV, 1000 nM): 76.13 % of control and 68.91 % of control and 67.97 % of control and 76.57 % of control and 67.70 % of control and 49.07 % of control and 76.54 % of control and 74.06 % of control and 46.15 % of control and 70.23 % of control and 69.64 % of control and 77.72 % of control
- Collagen level, average ([2]; WI-26 VA4 EV, 3000 nM): 47.79 % of control
- Collagen level, single replicates ([2]; WI-26 VA4 EV, 3000 nM): 46.50 % of control and 50.68 % of control and 52.48 % of control and 46.12 % of control and 48.12 % of control and 44.47 % of control and 46.33 % of control and 45.40 % of control and 47.63 % of control and 51.25 % of control and 49.30 % of control and 45.24 % of control
- Collagen level, average ([2]; WI-26 VA4 EV, 10000 nM): 13.92 % of control
- Collagen level, single replicates ([2]; WI-26 VA4 EV, 10000 nM): 13.28 % of control and 17.27 % of control and 16.23 % of control and 13.89 % of control and 12.05 % of control and 10.58 % of control and 12.31 % of control and 11.80 % of control and 11.03 % of control and 17.85 % of control and 17.12 % of control and 13.65 % of control
- Collagen level, average ([2]; WI-26 VA4 EV, 30000 nM): 4.05 % of control
- Collagen level, single replicates ([2]; WI-26 VA4 EV, 30000 nM): 4.24 % of control and 4.41 % of control and 4.74 % of control and 6.13 % of control and 2.65 % of control and 2.97 % of control and 3.41 % of control and 2.56 % of control and 2.84 % of control and 4.90 % of control and 3.97 % of control and 5.81 % of control
- Collagen level, average ([2]; WI-26 VA4 EV, 100000 nM): 3.50 % of control
- Collagen level, single replicates ([2]; WI-26 VA4 EV, 100000 nM): 2.77 % of control and 4.80 % of control and 4.00 % of control and 3.82 % of control and 3.27 % of control and 2.48 % of control and 2.45 % of control and 2.57 % of control and 2.65 % of control and 4.71 % of control and 3.89 % of control and 4.63 % of control
- Collagen level, average ([2]; WI-26 VA4 EV, 300000 nM): 2.44 % of control
- Collagen level, single replicates ([2]; WI-26 VA4 EV, 300000 nM): 2.49 % of control and 2.31 % of control and 2.89 % of control and 2.54 % of control
- HillSlope, collagen level ([2]; WI-26 VA4 EV, four-parameter fit): -0.8641
- LogIC50, collagen level ([2]; WI-26 VA4 EV, log of concentration in nM, four-parameter fit): 3.281
- CC50 at 72 h [3]: 11.8 µM
- IC50 at 72 h [3]: 11.8 µM
- activity at 72 h, 3 µM [3, 6]: 85.2%
- activity at 72 h, 30 µM [3, 6]: 25.3%
- activity at 72 h, 100 µM [3, 6]: 22.8%
- activity at 72 h, 0.01 µM ([3]; Cytotoxicity, % of control, average, WI-26 VA4 Flag-PARS1 FA/EA/RL, 10 nM): 110%
- activity at 72 h, 0.03 µM ([3]; Cytotoxicity, % of control, average, WI-26 VA4 Flag-PARS1 FA/EA/RL, 30 nM): 107%
- activity at 72 h, 0.1 µM ([3]; Cytotoxicity, % of control, average, WI-26 VA4 Flag-PARS1 FA/EA/RL, 100 nM): 110%
- activity at 72 h, 0.3 µM ([3]; Cytotoxicity, % of control, average, WI-26 VA4 Flag-PARS1 FA/EA/RL, 300 nM): 107%
- activity at 72 h, 1 µM ([3]; Cytotoxicity, % of control, average, WI-26 VA4 Flag-PARS1 FA/EA/RL, 1000 nM): 111%
- activity at 72 h, 3 µM [3, 7]: 81.7%
- activity at 72 h, 10 µM ([3]; Cytotoxicity, % of control, average, WI-26 VA4 Flag-PARS1 FA/EA/RL, 10000 nM): 68.8%
- activity at 72 h, 30 µM [3, 7]: 19.5%
- activity at 72 h, 100 µM [3, 7]: 20.1%
- activity at 72 h, 300 µM ([3]; Cytotoxicity, % of control, average, WI-26 VA4 Flag-PARS1 FA/EA/RL, 300000 nM): 1.1%
- activity at 72 h, 1000 µM ([3]; Cytotoxicity, % of control, average, WI-26 VA4 Flag-PARS1 FA/EA/RL, 1000000 nM): 0%
- Cytotoxicity, % of control (single replicates, Experiment #1-#4) ([4]; 10 nM, 0.01 µM): 127.65 % of control and 116.09 % of control and 111.66 % of control and 110.83 % of control and 101.75 % of control and 99.44 % of control and 110.49 % of control and 101.49 % of control
- Cytotoxicity, % of control (single replicates, Experiment #1-#4) ([4]; 30 nM, 0.03 µM): 126.96 % of control and 104.11 % of control and 114.08 % of control and 105.16 % of control and 106.38 % of control and 115.03 % of control and 93.72 % of control and 92.87 % of control
- Cytotoxicity, % of control (single replicates, Experiment #1-#4) ([4]; 100 nM, 0.1 µM): 127.60 % of control and 108.47 % of control and 113.70 % of control and 109.71 % of control and 111.06 % of control and 113.53 % of control and 98.60 % of control and 94.80 % of control
- Cytotoxicity, % of control (single replicates, Experiment #1-#4) ([4]; 300 nM, 0.3 µM): 132.76 % of control and 113.23 % of control and 105.15 % of control and 116.43 % of control and 104.37 % of control and 100.43 % of control and 94.90 % of control and 90.64 % of control
- Cytotoxicity, % of control (single replicates, Experiment #1-#4) ([4]; 1000 nM, 1 µM): 112.40 % of control and 100.20 % of control and 107.27 % of control and 121.00 % of control and 132.94 % of control and 130.17 % of control and 95.86 % of control and 86.64 % of control
- Cytotoxicity, % of control (single replicates, Experiment #1-#4) ([4]; 3000 nM, 3 µM): 71.51 % of control and 74.54 % of control and 81.32 % of control and 80.03 % of control and 89.57 % of control and 88.20 % of control and 83.52 % of control
- Cytotoxicity, % of control (single replicates, Experiment #1-#4) ([4]; 10000 nM, 10 µM): 63.68 % of control and 53.80 % of control and 76.80 % of control and 69.72 % of control and 64.84 % of control and 73.82 % of control and 81.37 % of control and 66.19 % of control
- Cytotoxicity, % of control (single replicates, Experiment #1-#4) ([4]; 30000 nM, 30 µM): 25.76 % of control and 18.61 % of control and 17.42 % of control and 17.01 % of control and 19.68 % of control and 18.20 % of control and 14.25 % of control
- Cytotoxicity, % of control (single replicates, Experiment #1-#4) ([4]; 100000 nM, 100 µM): 21.16 % of control and 22.59 % of control and 20.38 % of control and 17.48 % of control and 18.26 % of control and 18.73 % of control and 19.25 % of control
- Cytotoxicity, % of control (single replicates, Experiment #1-#4) ([4]; 300000 nM, 300 µM): 1.23 % of control and 1.09 % of control and 1.22 % of control and 0.52 % of control and 1.28 % of control and 1.77 % of control and 1.38 % of control and 0.29 % of control
- Cytotoxicity, % of control (single replicates, Experiment #1-#4) ([4]; 1000000 nM, 1000 µM): 0.10 % of control and -0.10 % of control and 0.29 % of control and -0.29 % of control and 0.16 % of control and -0.16 % of control and 0.22 % of control and -0.22 % of control
- Cytotoxicity HillSlope (best-fit value) ([4]; log(inhibitor) vs. response, variable slope (four parameters)): -1.118
- Cytotoxicity LogIC50 (best-fit value) ([4]; log(inhibitor) vs. response, variable slope (four parameters), concentration in nM): 4.071
- CC50 at 72 h [5]: 24 µM
- IC50 at 72 h [5]: 24 µM
- activity at 72 h, 100 µM ([5]; Cytotoxicity, % of control (single replicates, Experiment #1-#4), WI-26 VA4 EV, 100000 nM): 29.1%
- activity at 72 h, 300 µM ([5]; Cytotoxicity, % of control (single replicates, Experiment #1-#4), WI-26 VA4 EV, 300000 nM): 2.25%
